One data set deals with c-Met-Fc (Homo sapiens, UniProt P08581). The data set is described as follows: Binding ability by surface plasmon resonance (SPR, Biacore). The settings on record: for kon: read-out: ka. Here is the method:
Binding ability of the thioether macrocyclic peptide was evaluated by SPR measurement using Biacore (GE Healthcare).
As a sensor chip, Sensor Chip CM5 was used and an anti-IgG antibody was immobilized on a measurement lane and a control lane by using Human Antibody Capture Kit.
On the measurement lane was immobilized c-Met-Fc, while on the control lane was immobilized Fc protein.
As a running buffer, HBS-EP+ buffer containing 0.1% DMSO was used and a dissociation constant of the thioether macrocyclic peptide was calculated at 5 different concentrations by using the single-kinetics method.
For orientation: SPR reads the build-up and loss of mass on a sensor chip optically.

Data set [1] in a line: Stability of thioether macrocyclic peptide in human serum pool (LC-MS). The class given is in vitro ADME. The settings on record: for remaining at 1 h, 1 μM: Table 8. Here is the method:
A DMSO solution of the thioether macrocyclic peptide to be evaluated was dissolved in a human serum pool to give a concentration of 1 μM. The human serum pool containing the thioether macrocyclic peptide thus prepared was incubated at 37° C.
After an elapse of the evaluation time, the human serum pool containing the thioether macrocyclic peptide was placed on ice and a peptide serving as an internal standard was added and mixed to give a concentration of 1 μM. The resulting mixture was added to a solid-phase extraction column (Hyper Sep SPE column, Thermo Scientific), washed with a 5% aqueous acetonitrile solution containing 0.1% TFA, and then purified by eluting with a 70% aqueous acetonitrile solution containing 0.1% TFA.
The molecular weight of the purified product was analyzed using LC-MS and the cleavage site in the serum was identified. In addition, the thioether macrocyclic peptide which had remained without being cleaved was quantitatively determined by comparing an amount relative to the internal standard at every incubation time.

Experimental findings from patent US9994616B2, “c-Met protein agonist” (The University of Tokyo, priority 2013, dated 2018) are described below.

Like-named read-outs stand apart in the source and are kept apart here. Where a SMILES comes first, the peptide text is derived from it. Bridges are numbered along the chain shown (N, C = ends). [ ]: non-standard residue; d: D form. NMeR = CN[C@@H](CCCNC(=N)N)C(=O)O; NMeF = CN[C@@H](Cc1ccccc1)C(=O)O

The Kd is the constant that tells how readily two partners part at equilibrium. Higher therefore signals weaker binding. In general, fraction remaining refers to the share of the starting amount still present when the sample was taken. The low end stands for a greater loss, the high end for greater stability.

Chain of c-Met-Fc (P08581 with tags, fused parts or gaps limits assumed): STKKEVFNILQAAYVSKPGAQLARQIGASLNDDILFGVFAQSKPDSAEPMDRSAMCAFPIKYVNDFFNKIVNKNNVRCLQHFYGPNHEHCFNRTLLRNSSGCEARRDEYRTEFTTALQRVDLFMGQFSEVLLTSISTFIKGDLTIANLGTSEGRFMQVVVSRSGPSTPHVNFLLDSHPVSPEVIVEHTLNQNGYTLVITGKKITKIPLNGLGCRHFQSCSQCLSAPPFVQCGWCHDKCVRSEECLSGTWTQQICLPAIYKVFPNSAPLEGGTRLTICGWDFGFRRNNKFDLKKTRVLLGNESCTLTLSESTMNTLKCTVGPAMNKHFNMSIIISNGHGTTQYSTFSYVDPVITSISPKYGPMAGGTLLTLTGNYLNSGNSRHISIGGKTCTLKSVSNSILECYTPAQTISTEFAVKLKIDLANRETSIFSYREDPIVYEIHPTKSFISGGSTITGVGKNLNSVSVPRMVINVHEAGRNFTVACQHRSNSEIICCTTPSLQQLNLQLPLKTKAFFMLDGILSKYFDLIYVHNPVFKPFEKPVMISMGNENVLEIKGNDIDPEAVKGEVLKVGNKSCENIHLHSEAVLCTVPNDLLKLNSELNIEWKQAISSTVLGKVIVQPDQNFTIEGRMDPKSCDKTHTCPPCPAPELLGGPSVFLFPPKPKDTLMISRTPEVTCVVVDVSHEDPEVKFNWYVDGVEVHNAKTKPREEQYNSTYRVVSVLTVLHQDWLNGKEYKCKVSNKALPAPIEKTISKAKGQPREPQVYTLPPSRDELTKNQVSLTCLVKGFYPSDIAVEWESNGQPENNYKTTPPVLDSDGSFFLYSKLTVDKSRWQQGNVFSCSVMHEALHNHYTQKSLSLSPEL
Chain of c-Met-Fc (P08581 25-307 limits assumed): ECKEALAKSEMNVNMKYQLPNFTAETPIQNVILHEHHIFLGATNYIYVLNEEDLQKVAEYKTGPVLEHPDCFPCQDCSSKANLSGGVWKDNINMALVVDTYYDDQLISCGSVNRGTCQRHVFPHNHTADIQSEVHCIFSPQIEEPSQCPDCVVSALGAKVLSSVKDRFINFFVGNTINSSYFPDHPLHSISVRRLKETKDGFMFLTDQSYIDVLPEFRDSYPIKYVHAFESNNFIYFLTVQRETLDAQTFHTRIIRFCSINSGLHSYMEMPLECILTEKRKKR

For the compound `CC[C@H](C)[C@@H]1NC(=O)[C@H](Cc2ccc(O)cc2)NC(=O)CSC[C@@H](C(=O)NCC(N)=O)NC(=O)[C@H]([C@@H](C)O)NC(=O)[C@H]([C@@H](C)CC)NC(=O)[C@H](Cc2ccccc2)NC(=O)[C@H](CCCNC(=N)N)NC(=O)[C@H](Cc2c[nH]c3ccccc23)NC(=O)[C@H](CC(N)=O)NC(=O)[C@@H]2CCCN2C(=O)[C@H](CO)NC(=O)[C@H](CC(N)=O)NC(=O)[C@H](Cc2ccccc2)NC(=O)[C@H](CCC(=O)O)NC(=O)[C@H](CC(N)=O)NC(=O)[C@H](Cc2c[nH]c3ccccc23)NC(=O)[C@H](CO)NC1=O` [Peptide L5-2] ({CH2CO}-YISWNEFNSPNWRFITCG-NH2; thioether N-17), at c-Met-Fc (Table 10, c-Met-Fc), binding was put at a Kd of 5.4 nM and the kon is 2.3e+06 M⁻¹ s⁻¹. In addition, the “Stability in human serum (undegraded portion/time)” value in data set [1] (Table 10, 2 h, 37° C.) was determined as 71%/2 h.
For `CC(C)C[C@@H]1NC(=O)[C@H](CC(N)=O)NC(=O)[C@H](Cc2c[nH]c3ccccc23)NC(=O)[C@H](C(C)C)NC(=O)[C@H](CCC(=O)O)NC(=O)[C@H](Cc2c[nH]cn2)NC(=O)[C@H]([C@@H](C)O)NC(=O)[C@H](CCCNC(=N)N)NC(=O)[C@H](CCCNC(=N)N)NC(=O)[C@H](CC(N)=O)NC(=O)[C@H](Cc2ccccc2)NC(=O)[C@H](CCC(N)=O)NC(=O)[C@H](CCCNC(=N)N)N(C)C(=O)[C@@H](Cc2ccc(O)cc2)NC(=O)CSC[C@@H](C(=O)NCC(N)=O)NC(=O)[C@H](CC(=O)O)NC1=O` [Peptide N2] ({CH2CO}-[dY][NMeR]QFNRRTHEVWNLDCG-NH2; thioether N-16; C-terminus assumed), on c-Met-Fc (Table 8, c-Met-Fc), the kd is listed as 1.0 10^−2 s^−1 and the kon is 710000 M⁻¹ s⁻¹. In data set [1] (human serum pool, 37° C., 1 μM), this compound registered a fraction remaining at 1 h, 1 μM of 5.4%.
Regarding `CC(C)C[C@@H]1NC(=O)[C@H](CC(N)=O)NC(=O)[C@H](Cc2c[nH]c3ccccc23)NC(=O)[C@H](C(C)C)NC(=O)[C@H](CCC(=O)O)NC(=O)[C@H](Cc2c[nH]cn2)NC(=O)[C@H]([C@@H](C)O)NC(=O)[C@H](CCCNC(=N)N)NC(=O)[C@H](CCCNC(=N)N)NC(=O)[C@H](CC(N)=O)NC(=O)[C@H](Cc2ccccc2)N(C)C(=O)[C@H](CCC(N)=O)NC(=O)[C@H](CCCNC(=N)N)NC(=O)[C@@H](Cc2ccc(O)cc2)NC(=O)CSC[C@@H](C(=O)NCC(N)=O)NC(=O)[C@H](CC(=O)O)NC1=O` [Peptide N4] ({CH2CO}-[dY]RQ[NMeF]NRRTHEVWNLDCG-NH2; thioether N-16; C-terminus assumed), at c-Met-Fc (Table 8, c-Met-Fc), the kd was 0.96 10^−2 s^−1 and the kon was determined as 120000 M⁻¹ s⁻¹. For the same compound, the share remaining at 1 h, 1 μM in data set [1] (human serum pool, 37° C., 1 μM) turned out to be 21.1%.
As to `CC(C)C[C@@H]1NC(=O)[C@H](CC(N)=O)NC(=O)[C@H](Cc2c[nH]c3ccccc23)NC(=O)[C@H](C(C)C)NC(=O)[C@H](CCC(=O)O)NC(=O)[C@H](Cc2c[nH]cn2)NC(=O)[C@H]([C@@H](C)O)NC(=O)[C@H](CCCNC(=N)N)NC(=O)[C@H](CCCNC(=N)N)N(C)C(=O)[C@H](CC(N)=O)NC(=O)[C@H](Cc2ccccc2)NC(=O)[C@H](CCC(N)=O)NC(=O)[C@H](CCCNC(=N)N)NC(=O)[C@@H](Cc2ccc(O)cc2)NC(=O)CSC[C@@H](C(=O)NCC(N)=O)NC(=O)[C@H](CC(=O)O)NC1=O` [Peptide N6] ({CH2CO}-[dY]RQFN[NMeR]RTHEVWNLDCG-NH2; thioether N-16; C-terminus assumed), on c-Met-Fc, the “Binding ability (in words)” value is listed as “do not show marked deterioration”. Also, at c-Met-Fc (Table 8, c-Met-Fc), the kd was 0.41 10^−2 s^−1 and the kon was found to be 120000 M⁻¹ s⁻¹. Moreover, on c-Met-Fc (Table 9, c-Met-Fc), the ka was 1.2 10^5 M^−1s^−1 and the kd was 0.41 10^−2s^−1. In data set [1] (human serum pool, 37° C., 1 μM), this compound displayed a fraction remaining at 1 h, 1 μM of 85%. This compound also yielded a fraction remaining at 4 h, 1 μM in data set [1] (Table 9, human serum pool, 37° C., 1 μM, 4 h) of 67%. Also, in data set [1] (human serum), the “Stability in serum (in words)” value is on record as “drastically improved”.
